Values joined by “and” are separate entries in the source; they are usually repeats but may differ in a detail not shown here. Equal entries are not always repeated. Where two headings read alike, the source gives them in different places.
Tests used:
[1] = target: T1, NSD3 (Homo sapiens, UniProt Q9BZ95); test: Radioisotope-based methyltransferase assay (selectivity); type: biochemical; details: read-out: IC50
T1 construct: purchased Reaction Biology
T1 sequence (Q9BZ95 1-1437): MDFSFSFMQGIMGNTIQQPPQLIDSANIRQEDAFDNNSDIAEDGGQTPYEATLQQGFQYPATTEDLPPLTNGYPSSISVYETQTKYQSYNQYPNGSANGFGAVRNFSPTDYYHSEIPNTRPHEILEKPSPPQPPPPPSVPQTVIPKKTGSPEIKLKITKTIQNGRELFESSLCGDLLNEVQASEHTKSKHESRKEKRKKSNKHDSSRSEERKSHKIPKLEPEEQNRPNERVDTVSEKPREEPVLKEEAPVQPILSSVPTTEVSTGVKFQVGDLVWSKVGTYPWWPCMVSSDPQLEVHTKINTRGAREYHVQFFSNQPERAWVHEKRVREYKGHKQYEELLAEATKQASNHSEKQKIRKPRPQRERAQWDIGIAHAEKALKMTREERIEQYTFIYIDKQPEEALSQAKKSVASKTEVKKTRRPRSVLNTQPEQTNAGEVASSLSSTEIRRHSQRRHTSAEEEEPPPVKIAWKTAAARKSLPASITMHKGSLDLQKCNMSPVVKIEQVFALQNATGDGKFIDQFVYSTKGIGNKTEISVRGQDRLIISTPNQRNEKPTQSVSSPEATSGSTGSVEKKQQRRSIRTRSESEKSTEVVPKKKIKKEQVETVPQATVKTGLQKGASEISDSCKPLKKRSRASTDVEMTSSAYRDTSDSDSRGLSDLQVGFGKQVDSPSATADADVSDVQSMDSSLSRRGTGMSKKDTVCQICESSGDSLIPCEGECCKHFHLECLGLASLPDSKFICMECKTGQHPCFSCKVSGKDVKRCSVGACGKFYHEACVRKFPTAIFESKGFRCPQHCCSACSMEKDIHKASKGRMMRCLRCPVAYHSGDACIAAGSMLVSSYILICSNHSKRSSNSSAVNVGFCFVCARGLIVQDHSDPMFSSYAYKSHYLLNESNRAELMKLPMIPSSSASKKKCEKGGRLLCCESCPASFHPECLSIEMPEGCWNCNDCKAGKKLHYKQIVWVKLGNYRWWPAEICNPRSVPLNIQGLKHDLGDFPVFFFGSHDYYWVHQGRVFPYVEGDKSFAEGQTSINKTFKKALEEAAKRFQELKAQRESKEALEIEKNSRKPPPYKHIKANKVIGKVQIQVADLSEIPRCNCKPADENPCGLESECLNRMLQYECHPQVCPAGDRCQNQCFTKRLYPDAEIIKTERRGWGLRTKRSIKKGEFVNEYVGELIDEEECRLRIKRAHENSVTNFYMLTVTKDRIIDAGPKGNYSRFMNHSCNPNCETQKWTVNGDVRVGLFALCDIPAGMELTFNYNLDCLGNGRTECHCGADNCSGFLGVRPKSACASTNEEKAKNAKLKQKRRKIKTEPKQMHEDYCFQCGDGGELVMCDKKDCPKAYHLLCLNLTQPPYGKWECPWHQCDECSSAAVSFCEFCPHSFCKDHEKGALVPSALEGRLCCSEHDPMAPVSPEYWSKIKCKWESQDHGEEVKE

[2] = target: T2, PRMT4 (Homo sapiens, UniProt Q86X55); test: as above; type: biochemical
T2 construct: purchased Reaction Biology

[3] = test system: H3K9me2 in peripheral blood; test: H3K9me2 levels in peripheral blood of treated mice; type: in vivo
Experimental: Preparation of cell lysates and western blotting were performed as described previously. Protein from cells lysates in lysis buffer (50 mM Tris-HCl (pH 7.5), 150 mM NaCl, 5 mM EDTA, 0.1% NP-40, 1 mM dithiothreitol) were separated by sodium dodecyl sulfate–polyacrylamide gel electrophoresis (SDS-PAGE) and transferred to a polyvinylidene difluoride (PVDF) membrane (Millipore) by electroblotting. The membranes incubated with primary antibodies overnight at 4 °C and secondary antibodies for 1 h at room temperature. The immune complexes were detected with the Immobilon Western Chemiluminescent HRP Substrate (Millipore). Luminescence was analyzed on a FUSION SOLO S (Vilber). Western blot bands were visualized using Evolution Capt software (M&S Instruments Inc.). Primary antibodies used were anti-G9a (1:1000, CST, #3306), anti–α-tubulin (1:5000, Abcam, ab18251), anti-H3K9me2 (1:3000, Abcam, ab1220), anti-H3 (1:5000, Abcam, ab1791), anti-H3K27me3 (1:3000, Sigma, 07-449), anti-GLP (1:1000, CST, #35005), anti-FLAG (100 ng/ml, Fujifilm, 01422383), anti-His (1:5000, MBL, PM032), anti-BCL11A (1:1000, abcam, ab19487), anti-ZBTB7A (1:1000, CST, #50565), anti-CHD3 (1:1000, Novus Biologicals, NB100-60412), and anti-CHD4 (1:1000, abcam, ab240640). […]
The dosing solution contained 15% DMSO, 17.5% Cremophor EL, 8.75% EtOH, 8.75% HCO-40, and 50% PBS. […] The weight of each mouse was measured every 3 or 4 days.

[4] = Parallel artificial membrane permeability assay (PAMPA); type: in vitro ADME
Experimental: Parallel artificial membrane permeability measurements were performed in duplicate with a Corning Gentest Pre-coated PAMPA Plate System according to the standard protocol of Corning Incorporated Life Sciences (Tewksbury).

T2 sequence (Q86X55 whole entry): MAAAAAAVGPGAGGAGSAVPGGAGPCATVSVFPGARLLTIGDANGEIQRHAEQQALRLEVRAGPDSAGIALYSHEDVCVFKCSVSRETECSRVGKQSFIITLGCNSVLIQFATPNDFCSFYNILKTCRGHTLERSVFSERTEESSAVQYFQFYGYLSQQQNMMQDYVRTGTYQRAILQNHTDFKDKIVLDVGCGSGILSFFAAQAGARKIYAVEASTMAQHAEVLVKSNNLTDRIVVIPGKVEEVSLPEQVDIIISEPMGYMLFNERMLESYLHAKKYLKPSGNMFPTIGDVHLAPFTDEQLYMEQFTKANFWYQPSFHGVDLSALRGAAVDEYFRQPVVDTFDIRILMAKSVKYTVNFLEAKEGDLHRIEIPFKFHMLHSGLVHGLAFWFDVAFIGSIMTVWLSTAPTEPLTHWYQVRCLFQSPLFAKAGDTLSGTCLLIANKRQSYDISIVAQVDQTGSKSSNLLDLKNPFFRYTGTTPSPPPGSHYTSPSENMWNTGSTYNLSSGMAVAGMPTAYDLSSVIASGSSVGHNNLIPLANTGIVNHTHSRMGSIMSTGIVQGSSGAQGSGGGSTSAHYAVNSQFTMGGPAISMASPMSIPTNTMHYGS

Cc1c(C(=O)NC(CCC2CC2)C(=O)Nc2ccc(C#N)cc2)[nH]c2c1C(=O)CC(C)(C)C2 (centres unmarked) [RK-701]
IC50 ([1]; NSD3, 1 μM SAM): > 100 µM
IC50 ([1]; NSD3, RK-701 in duplicate): > 100 µM
IC50 ([2]; PRMT4, 1 μM SAM): > 100 µM
IC50 ([2]; PRMT4, RK-701 in duplicate): > 100 µM
H3K9me2 levels in peripheral blood cells [3]: significant decrease
cell permeability (PAMPA and Caco-2) [4]: decent cell permeability
Papp ([4]; PAMPA): 3.08 ± 1.47 ×10⁻⁶ cm/s
PAMPA ([4]; replicate values): 2.736e-6 and 5.393e-6 and 2.8861e-6 and 1.3122e-6

Source: PMC9837035 (Nature Communications, 2023)
